According to patent publication US20090005374A1, “IMIDAZOPYRIDINYL THIAZOLYL HISTONE DEACETYLASE INHIBITORS” (priority 2007, published 2009):

Key:
[1] = molecular target: T1, HDAC 1 (Homo sapiens, UniProt Q13547); assay: HDAC 1 fluorogenic peptide substrate assay without preincubation; assay type: biochemical; conditions: no preincubation; read-out: HDAC 1 inhibitory activity (IC50) No preincubation
Description: (§1) HDAC inhibitory activity of the compound of Example 1 was measured by two types of assays in which HDAC 1 and 6 were used as a target molecule. The first assay was carried out without preincubation after addition of the enzyme. The test compound was suspended in and titrated in DMSO. It was then spotted into a 384-well test plate. The enzyme, HDAC 1 or 6, was diluted in assay buffer containing 25 mM Tris-HCl (pH 8.0), 137 mM NaCl, 2.7 mM KCl, and 0.01% Tween-20 and added to the pre-spotted compound. The peptide substrate containing a fluorophore/quencher pair was diluted in the same assay buffer and added to the compound/enzyme mix initiating the reaction. The reaction incubated at room temperature for about 45 minutes. A concentrated developer solution was diluted in the assay buffer, and added to the reaction. The reaction was incubated at room temperature for about 15 minutes and relative fluorescence was read on an instrument reader.

[2] = molecular target: T1, HDAC 1; assay: HDAC 1 fluorogenic peptide substrate assay with 3-hour enzyme/compound preincubation; assay type: biochemical; conditions: 3-hour preincubation of enzyme and compound; read-out: HDAC 1 inhibitory activity (IC50) 3-hour preincubation
Description: (§2) The second assay is similar to the first assay described above, except that preincubation is carried out for about 3 hours after the enzyme is introduced. The test compound was suspended in, and titrated in DMSO. It was then spotted into a 384-well test plate. The enzyme, HDAC 1 or 6, was diluted in the same assay buffer as used in the previous assay and added to the pre-spotted compound. The enzyme/compound mix was incubated at room temperature for about 3 hours. The peptide substrate containing a fluorophore/quencher pair was diluted in the assay buffer and added to the compound/enzyme mix initiating the reaction. The reaction incubated at room temperature for 45 minutes. A concentrated developer solution was diluted in the assay buffer, and added to the reaction. The reaction was incubated at room temperature for about 15 minutes and relative fluorescence was read on an instrument reader.

[3] = molecular target: T2, HDAC 6 (Homo sapiens, UniProt Q9UBN7); assay: HDAC 6 fluorogenic peptide substrate assay without preincubation; assay type: biochemical; conditions: no preincubation; read-out: HDAC 6 inhibitory activity (IC50) No preincubation
T2 sequence (Q9UBN7 1-1215): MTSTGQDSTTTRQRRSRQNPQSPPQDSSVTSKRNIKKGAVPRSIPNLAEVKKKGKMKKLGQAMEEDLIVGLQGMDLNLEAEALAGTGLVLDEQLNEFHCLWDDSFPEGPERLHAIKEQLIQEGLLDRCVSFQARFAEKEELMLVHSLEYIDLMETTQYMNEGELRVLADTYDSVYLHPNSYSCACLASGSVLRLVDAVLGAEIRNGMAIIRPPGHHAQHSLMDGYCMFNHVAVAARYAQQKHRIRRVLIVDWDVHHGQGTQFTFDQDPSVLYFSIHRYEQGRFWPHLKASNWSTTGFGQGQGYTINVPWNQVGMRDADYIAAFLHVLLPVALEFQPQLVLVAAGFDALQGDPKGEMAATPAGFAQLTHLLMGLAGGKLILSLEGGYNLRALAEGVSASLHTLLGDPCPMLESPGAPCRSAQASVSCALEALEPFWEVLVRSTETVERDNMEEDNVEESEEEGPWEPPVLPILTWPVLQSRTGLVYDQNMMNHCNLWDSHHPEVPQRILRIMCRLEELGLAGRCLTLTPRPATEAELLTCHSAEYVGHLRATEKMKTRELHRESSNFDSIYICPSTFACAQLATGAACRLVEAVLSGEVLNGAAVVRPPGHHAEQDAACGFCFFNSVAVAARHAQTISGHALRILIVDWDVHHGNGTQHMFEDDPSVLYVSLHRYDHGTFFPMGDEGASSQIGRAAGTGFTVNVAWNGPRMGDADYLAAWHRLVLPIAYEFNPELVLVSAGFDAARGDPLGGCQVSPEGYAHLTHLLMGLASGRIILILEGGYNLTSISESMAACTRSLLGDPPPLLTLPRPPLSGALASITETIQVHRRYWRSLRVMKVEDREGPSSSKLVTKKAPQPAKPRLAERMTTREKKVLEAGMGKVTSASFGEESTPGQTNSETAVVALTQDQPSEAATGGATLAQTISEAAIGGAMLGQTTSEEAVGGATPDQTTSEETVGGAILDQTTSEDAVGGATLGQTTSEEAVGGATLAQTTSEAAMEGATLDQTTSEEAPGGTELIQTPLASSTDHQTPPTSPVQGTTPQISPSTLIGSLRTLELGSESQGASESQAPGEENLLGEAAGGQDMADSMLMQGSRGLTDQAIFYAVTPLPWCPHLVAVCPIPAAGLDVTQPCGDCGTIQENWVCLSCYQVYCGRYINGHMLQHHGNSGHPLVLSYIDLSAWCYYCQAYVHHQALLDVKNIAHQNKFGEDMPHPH
Description: as §1

[4] = molecular target: T2, HDAC 6; assay: HDAC 6 fluorogenic peptide substrate assay with 3-hour enzyme/compound preincubation; assay type: biochemical; conditions: 3-hour preincubation of enzyme and compound; read-out: HDAC 6 inhibitory activity (IC50) 3-hour preincubation
Description: as §2

T1 sequence (Q13547 whole entry, species assumed): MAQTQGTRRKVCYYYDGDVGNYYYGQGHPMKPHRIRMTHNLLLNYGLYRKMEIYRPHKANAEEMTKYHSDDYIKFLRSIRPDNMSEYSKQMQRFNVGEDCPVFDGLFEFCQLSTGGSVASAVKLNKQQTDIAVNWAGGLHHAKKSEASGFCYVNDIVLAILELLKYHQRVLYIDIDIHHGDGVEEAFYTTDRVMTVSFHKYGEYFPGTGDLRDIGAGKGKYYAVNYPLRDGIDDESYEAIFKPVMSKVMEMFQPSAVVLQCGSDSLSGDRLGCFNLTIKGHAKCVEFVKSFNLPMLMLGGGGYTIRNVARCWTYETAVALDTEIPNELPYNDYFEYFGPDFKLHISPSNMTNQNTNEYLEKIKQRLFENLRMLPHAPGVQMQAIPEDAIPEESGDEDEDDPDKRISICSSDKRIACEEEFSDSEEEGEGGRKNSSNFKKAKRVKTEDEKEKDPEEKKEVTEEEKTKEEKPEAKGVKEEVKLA

SMILES | IC50 [1] | IC50 [2] | IC50 [3] | IC50 [4] | melting point
Cc1nc2ccccn2c1-c1csc(Nc2cccc(C(=O)Nc3ccccc3N)c2)n1 [Example 2, N-(2-Amino-phenyl)-3-[4-(2-methyl-imidazo[1,2-a]pyridin-3-yl)-thiazol-2-ylamino]-benzamide] | 3260 nM | 42000 nM | > 50000 nM | > 50000 nM | 194.9 to 197 °C
Cc1nc2ccc(Cl)cn2c1-c1csc(Nc2ccc(C(=O)Nc3ccccc3N)cc2)n1 [Example 8, N-(2-Amino-phenyl)-4-[4-(6-chloro-2-methyl-imidazo[1,2-a]pyridin-3-yl)-thiazol-2-ylamino]-benzamide] |  | 51 nM |  |  | 
Cc1nc2ccc(C(F)(F)F)cn2c1-c1csc(Nc2ccc(C(=O)Nc3ccccc3N)cc2)n1 [Example 10, N-(2-Amino-phenyl)-4-[4-(2-methyl-6-trifluoromethyl-imidazo[1,2-a]pyridin-3-yl)-thiazol-2-ylamino]-benzamide] |  | 59 nM |  |  | 
COc1ccn2c(-c3csc(Nc4ccc(C(=O)Nc5ccccc5N)cc4)n3)c(C)nc2c1 [Example 11, N-(2-Amino-phenyl)-4-[4-(7-methoxy-2-methyl-imidazo[1,2-a]pyridin-3-yl)-thiazol-2-ylamino]-benzamide] |  | 56.9 nM |  |  | 159.7 °C
O=C(NO)c1cccc(Nc2nc(-c3cnc4ccccn34)cs2)c1 [Example 14, N-Hydroxy-3-(4-imidazo[1,2-a]pyridin-3-yl-thiazol-2-ylamino)-benzamide] | 5400 nM | 114 nM | 183 nM |  | 184.1 °C
Nc1ccccc1NC(=O)c1ccc(Nc2nc(-c3cnc4ccccn34)cs2)cc1 [Example 15, N-(2-Amino-phenyl)-4-(4-imidazo[1,2-a]pyridin-3-yl-thiazol-2-ylamino)-benzamide] |  | 37 nM |  | > 10000 nM | 229.4 °C
Nc1ncccc1NC(=O)c1ccc(Nc2nc(-c3cnc4ccccn34)cs2)cc1 [Example 16, N-(2-Amino-pyridin-3-yl)-4-(4-imidazo[1,2-a]pyridin-3-yl-thiazol-2-ylamino)-benzamide] |  | 9130 nM |  |  | 
Cc1sc(Nc2ccc(C(=O)Nc3nn(-c4ccccc4)cc3N)cc2)nc1-c1cnc2ccccn12 [Example 19, N-(4-Amino-1-phenyl-1H-pyrazol-3-yl)-4-(4-imidazo [1,2-a]pyridin-3-yl-5-methyl-thiazol-2-ylamino)-benzamide] |  | 6030 nM |  |  | 
Nc1ccccc1NC(=O)c1ccc(Nc2ncc(-c3cnc4ccccn34)s2)cc1 [Example 20, N-(2-Amino-phenyl)-4-(5-imidazo[1,2-a]pyridin-3-yl-thiazol-2-ylamino)-benzamide] |  | 48 nM |  |  | 
Cc1nc2ccccn2c1-c1csc(N(CC(F)(F)F)c2ccc(C(=O)Nc3ccccc3N)cc2)n1 [Example 21a, N-(2-Amino-phenyl)-4-[[4-(2-methyl-imidazo[1,2-a]pyridin-3-yl)-thiazol-2-yl]-(2,2,2-trifluoro-ethyl)-amino]-benzamide] |  | 147 nM |  |  | 
Cc1nc2ccccn2c1-c1csc(N(CC(F)(F)F)c2ccc(C(=O)NO)cc2)n1 [Example 21b, N-Hydroxy-4-[[4-(2-methyl-imidazo[1,2-a]pyridin-3-yl)-thiazol-2-yl]-(2,2,2-trifluoro-ethyl)-amino]-benzamide] |  | 5580 nM |  |  | 

The remaining lines, values ahead:

IC50 [1] | IC50 [2] | IC50 [3] | IC50 [4] | melting point | SMILES
1080 nM | 92.7 nM | 318 nM | 490 nM | 170.4 °C | Cc1nc2ccccn2c1-c1csc(Nc2cccc(C(=O)NO)c2)n1 [Example 1, N-Hydroxy-3-[4-(2-methyl-imidazo[1,2-a]pyridin-3-yl)-thiazol-2-ylamino] -benzamide]
80 nM | 53.5 nM | 46.7 nM | 55.8 nM | 188.3 °C | Cc1nc2ccccn2c1-c1csc(Nc2ccc(C(=O)NO)cc2)n1 [Example 3, N-Hydroxy-4-[4-(2-methyl-imidazo[1,2-a]pyridin-3-yl)-thiazol-2-ylamino]-benzamide]
313 nM | 80 nM | > 50000 nM | > 50000 nM | 161.1 to 165.4 °C | Cc1nc2ccccn2c1-c1csc(Nc2ccc(C(=O)Nc3ccccc3N)cc2)n1 [Example 4, N-(2-Amino-phenyl)-4-[4-(2-methyl-imidazo[1,2-a]pyridin-3-yl)-thiazol-2-ylamino]-benzamide]
 | 53.9 nM |  |  | 200.5 °C | Cc1nc2ccccn2c1-c1nc(Nc2ccc(C(=O)NO)cc2)sc1C [Example 5, N-Hydroxy-4-[5-methyl-4-(2-methyl-imidazo[1,2-a]pyridin-3-yl)-thiazol-2-ylamino]-benzamide]
 | 21.5 nM |  |  | 250.1 °C | Cc1nc2ccccn2c1-c1nc(Nc2ccc(C(=O)Nc3ccccc3N)cc2)sc1C [Example 6, N-(2-Amino-phenyl)-4-[5-methyl-4-(2-methyl-imidazo[1,2-a]pyridin-3-yl)-thiazol-2-ylamino]-benzamide]
 | 22 nM |  |  |  | Cc1nc2ccc(Cl)cn2c1-c1csc(Nc2ccc(C(=O)NO)cc2)n1 [Example 7, 4-[4-(6-Chloro-2-methyl-imidazo[1,2-a]pyridin-3-yl)-thiazol-2-ylamino]-N-hydroxy-benzamide]
 | 154 nM |  |  | 183.2 °C | Cc1nc2ccc(C(F)(F)F)cn2c1-c1csc(Nc2ccc(C(=O)NO)cc2)n1 [Example 9, N-Hydroxy-4-[4-(2-methyl-6-trifluoromethyl-imidazo[1,2-a]pyridin-3-yl)-thiazol-2-ylamino]-benzamide]
 | 62.6 nM |  |  |  | COc1ccn2c(-c3csc(Nc4ccc(C(=O)NO)cc4)n3)c(C)nc2c1 [Example 12, N-Hydroxy-4-[4-(7-methoxy-2-methyl-imidazo[1,2-a]pyridin-3-yl)-thiazol-2-ylamino]-benzamide]
85.5 nM | 29 nM | 18.5 nM | 17 nM | 209.9 °C | O=C(NO)c1ccc(Nc2nc(-c3cnc4ccccn34)cs2)cc1 [Example 13, N-Hydroxy-4-(4-imidazo[1,2-a]pyridin-3-yl-thiazol-2-ylamino)-benzamide]
 | 24.6 nM |  |  | 186.5 °C | Cc1sc(Nc2ccc(C(=O)Nc3ccccc3N)cc2)nc1-c1cnc2ccccn12 [Example 17, N-(2-Amino-phenyl)-4-(4-imidazo[1,2-a]pyridin-3-yl-5-methyl-thiazol-2-ylamino)-benzamide]
 | 46.7 nM |  |  | 262.6 °C | Cc1sc(Nc2ccc(C(=O)NO)cc2)nc1-c1cnc2ccccn12 [Example 18, N-Hydroxy-4-(4-imidazo[1,2-a]pyridin-3-yl-5-methyl-thiazol-2-ylamino)-benzamide]
